Assay results published in ChEMBL document CHEMBL1156589, “2-Arylpyrimidines: novel CRF-1 receptor antagonists” (Bioorg Med Chem Lett, 2008).
In brackets after ≈: the same amount, converted by molar mass.

Columns and labels:
[1] = Volume of distribution in Sprague-Dawley rat at 20 mg/kg, po and 3 mg/kg, iv; format: ADME, organism-based; settings: in vivo
[2] = Tmax in Sprague-Dawley rat at 20 mg/kg, po and 3 mg/kg, iv; format: ADME, organism-based; settings: in vivo
[3] = target: T1, Corticotropin-releasing factor receptor 1 (Homo sapiens, UniProt P34998); experiment: Antagonist activity at CRF1 receptor expressed in mouse AtT20 cells assessed as inhibition of sauvagine-stimulated cAMP accumulation; format: functional, cell-based
T1 sequence (P34998 whole entry): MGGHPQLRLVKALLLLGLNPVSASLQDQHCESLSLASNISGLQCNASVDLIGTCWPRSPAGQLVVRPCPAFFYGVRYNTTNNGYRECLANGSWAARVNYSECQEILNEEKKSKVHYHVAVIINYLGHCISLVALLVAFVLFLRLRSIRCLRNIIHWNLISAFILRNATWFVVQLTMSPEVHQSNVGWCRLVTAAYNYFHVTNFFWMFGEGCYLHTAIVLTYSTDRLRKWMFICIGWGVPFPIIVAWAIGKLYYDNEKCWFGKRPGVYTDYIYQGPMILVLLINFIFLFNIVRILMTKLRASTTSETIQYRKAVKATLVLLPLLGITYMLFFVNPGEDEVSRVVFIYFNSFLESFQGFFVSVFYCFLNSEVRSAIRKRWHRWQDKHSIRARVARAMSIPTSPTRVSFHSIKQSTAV

[4] = Clearance in Sprague-Dawley rat at 20 mg/kg, po and 3 mg/kg, iv; format: ADME, organism-based; settings: in vivo
[5] = Cmax in Sprague-Dawley rat at 20 mg/kg, po and 3 mg/kg, iv; format: ADME, organism-based; settings: in vivo
[6] = Half life in Sprague-Dawley rat at 20 mg/kg, po and 3 mg/kg, iv; format: ADME, organism-based; settings: in vivo
[7] = Solubility in 0.1 N hydrochloric acid; format: physicochemical
[8] = Oral bioavailability in Sprague-Dawley rat at 20 mg/kg; format: ADME, organism-based; settings: in vivo
[9] = target: T1, Corticotropin-releasing factor receptor 1; experiment: biochemical; format: cell-based, IMR-32
Description: Displacement of [125I]sauvagine from human CRF1 receptor expressed in IMR32 cells

Compound | Ki [9] | other results
CCCN(CCC)c1c(C)nc(-c2c(C)cc(C)cc2OC)c2ccccc12 | – | Vd [1]: 13 L/kg; Tmax [2]: 0.7 h; IC50 [3]: 12 nM; clearance [4]: 14.5 mL/min/kg; Cmax [5]: 387 ng/mL; half-life [6]: 5.4 h; solubility [7]: < 0.5 µg/mL; bioavailability [8]: 5%
CCC(CC)Nc1c(C)nc(-c2c(C)cc(C)cc2OC)nc1OC | 94 nM | –
CCCN(CCC)c1c(CC(C)O)nc(-c2c(C)cc(C)cc2OC)nc1OC (stereo not given) | 1150 nM | –
CCCN(CCC)c1c(C)nc(-c2ccc(Cl)cc2Cl)nc1OC | > 10000 nM | –
CCCN(CCC)c1c(C)nc(-c2c(C)cc(C)cc2OC)nc1OC(C)C | > 5000 nM | –
CCCN(CCC)c1c(C)nc(-c2c(C)cc(C)cc2OC)nc1OCCO | 1610 nM | –
CCCc1nc(-c2c(C)cc(C)cc2OC)nc(OC)c1N(CCC)CCC | 76 nM | –
CCCN(CCC)c1c(C)nc(-c2c(C)cc(C)cc2OC)nc1OC | 15 nM | –
CCCNc1c(C)nc(-c2c(C)cc(C)cc2OC)nc1OC | > 10000 nM | –
COc1cc(C)cc(C)c1-c1nc(C)c(NCC(C)(C)C)c(OC)n1 | > 10000 nM | –
CCCN(CCC)c1c(C)nc(-c2c(OC)cc(C(F)(F)F)cc2C(F)(F)F)nc1OC | 6 nM | –
CCC(CC)Oc1c(C)nc(-c2c(C)cc(C)cc2OC)nc1OC | 8 nM | IC50 [3]: 19 nM
CCC(CC)Oc1c(C)nc(-c2c(OC)cc(Cl)cc2OC)nc1OC | 9 nM | Vd [1]: 14 L/kg; Tmax [2]: 1.8 h; IC50 [3]: 7 nM; clearance [4]: 13.6 mL/min/kg; Cmax [5]: 194 ng/mL; half-life [6]: 8.3 h; solubility [7]: 28 µg/mL (≈ 73.5 µM); bioavailability [8]: 6%
CCC(CC)c1cc(C)nn2c(-c3sc(N4CCOCC4)nc3Cl)c(C)nc12 | 0.2 nM | –
CCCN(CCC)c1c(C)nc(-c2c(C)cc(C)cc2OC)nc1OCC | 16 nM | –
CCCN(CCC)c1c(C)nc(-c2c(C)cc(C)cc2OC)nc1Cl | 33 nM | –
CCCN(CCC)c1cnc(-c2c(C)cc(C)cc2OC)nc1C | 561 nM | –
CCC(CC)Oc1c(C)nc(-c2c(OC)cc(C(F)F)cc2OC)nc1OC | 9 nM | –
CCCN(CCC)c1c(C)nc(-c2c(OC)cccc2OC)nc1OC | 277 nM | –
CCCN(CCC)c1c(CC(C)(C)O)nc(-c2c(C)cc(C)cc2OC)nc1OC | 604 nM | –
CCCN(CCC)c1c(CC)nc(-c2c(C)cc(C)cc2OC)nc1OC | 22 nM | –
CCCN(CCC)c1c(C)nc(-c2c(OC)cc(Cl)cc2OC)nc1OC | 2 nM | Vd [1]: 12 L/kg; Tmax [2]: 0.6 h; IC50 [3]: 1 nM; clearance [4]: 21 mL/min/kg; Cmax [5]: 210 ng/mL; half-life [6]: 2.8 h; solubility [7]: 27 µg/mL (≈ 68.5 µM); bioavailability [8]: 2%
CCCN(CCC)c1c(C)nc(-c2ccc(OC)cc2OC)nc1OC | 507 nM | –
CCCN(CCC)c1c(C)nc(-c2c(C)cc(C)cc2C)nc1OC | 354 nM | –
CCCOc1nc(-c2c(C)cc(C)cc2OC)nc(C)c1N(CCC)CCC | 53 nM | –
CCCCN(CC)c1nc(C)nc2c1c(C)cn2-c1c(C)cc(C)cc1C [CP-154526] | 3 nM | –
